The nature of data set [1]: in vitro. As to conditions: human.
In data set [2] the test system is HCV replicon cells (2209-23), genotype 1b replicon in Huh7 cells. Briefly: HCV replicon assay (Renilla luciferase reporter). As to conditions: Hepatitis C virus, Huh-7, 72 h, 2209-23 cells, three days incubation. The class given is cell-based, HCV genotype 1b; human hepatoma Huh7 cells. (A replicon is a self-replicating genome or part of one, used to study replication in cells.)

Data set [3] has as its target T1, HCV polymerase (NS5B570n-Con1) (Hepatitis C virus genotype 1b, UniProt Q9WMX2).
T1 construct: contains a 21 amino acid deletion at the C-terminus relative to the full-length HCV polymerase; made in house; host or cells: E. coli strain BL21(DE) pLysS, plasmid pET17b
The experiment in a line: HCV NS5B RNA polymerase activity (HCV Polymerase Assay). The class given is biochemical, HCV Con1 strain. The protocol:
The enzymatic activity of HCV polymerase (NS5B570n-Con1) was measured as the incorporation of radiolabeled nucleotide monophosphates into acid insoluble RNA products. Unincorporated radiolabeled substrate was removed by filtration and scintillant was added to the washed and dried filter plate containing radiolabeled RNA product. The amount of RNA product generated by NS5B570-Con1 at the end of the reaction was directly proportional to the amount of light emitted by the scintillant.
The N-terminal 6-histidine tagged HCV polymerase, derived from HCV Con1 strain, genotype 1b (NS5B570n-Con1) contains a 21 amino acid deletion at the C-terminus relative to the full-length HCV polymerase and was purified from E. coli strain BL21(DE) pLysS. The construct, containing the coding sequence of HCV NS5B Con1 (GenBank accession number AJ242654) was inserted into the plasmid construct pET17b, downstream of a T7 promoter expression cassette and transformed into E. coli. A single colony was grown overnight as a starter culture and later used inoculate 10 L of LB media supplemented with 100 μg/mL ampicillin at 37° C. Protein expression was induced by the addition of 0.25 mM isopropyl-β-D-thiogalactopyranoside (IPTG) when optical density at […] of the culture was between 0.6 and 0.8 and cells were harvested after 16 to 18 h at 30° C. NS5B570n-Con1 was purified to homogeneity using a three-step protocol including subsequent column chromatography on Ni-NTA, SP-Sepharose HP and Superdex 75 resins.
Each 50 μL enzymatic reaction contained 20 nM RNA template derived from the complementary sequence of the Internal Ribosome Entry Site (cIRES), 20 nM NS5B570n-Con1 enzyme, 0.5 μCi of tritiated UTP (Perkin Elmer catalog no. TRK-412; specific activity: 30 to 60 Ci/mmol; stock solution concentration from 7.5×10^−5 M to 20.6×10^−6 M), 1 μM each ATP, CTP, and GTP, 40 mM Tris-HCl pH 8.0, 40 mM NaCl, 4 mM DTT (dithiothreitol), 4 mM MgCl2, and 5 μL of compound serial diluted in DMSO. Reaction mixtures were assembled in 96-well filter plates (cat #MADVNOB, Millipore Co.) and incubated for 2 h at 30° C. Reactions were stopped by addition of 10% final (v/v) trichloroacetic acid and incubated for 40 min at 4° C. Reactions were filtered, washed with 8 reaction volumes of 10% (v/v) trichloroacetic acetic acid, 4 reaction volumes of 70% (v/v) ethanol, air dried, and 25 μL of scintillant (Microscint 20, Perkin-Elmer) was added to each reaction well.
The amount of light emitted from the scintillant was converted to counts per minute (CPM) on a Topcount® plate reader (Perkin-Elmer, Energy Range: Low, Efficiency Mode Normal, Count Time: 1 min, Background Subtract: none, Cross talk reduction: Off).
Data was analyzed in Excel® (Microsoft®) and ActivityBase® (Idbs®). The reaction in the absence of enzyme was used to determine the background signal, which was subtracted from the enzymatic reactions. Positive control reactions were performed in the absence of compound, from which the background corrected activity was set as 100% polymerase activity. All data was expressed as a percentage of the positive control.
The compound concentration at which the enzyme-catalyzed rate of RNA synthesis was reduced by 50% (IC50) was calculated by fitting equation (i) to the data where“Y”
[formula] corresponds to the relative enzyme activity (in %), “% Min” is the residual relative activity at saturating compound concentration, “% Max” is the relative maximum enzymatic activity, “X” corresponds to the compound concentration, and “S” is the Hill coefficient (or slope).

The subject of data set [4] is HCV. The conditions noted are these: cited from earlier work.

Consider `COc1c(/C=C/c2ccc(NS(C)(=O)=O)cc2)cc(N2CCC(C)(C)NC2=O)cc1C(C)(C)C` [Compound I-5, N-(4-{(E)-2-[3-tert-Butyl-5-(4,4-dimethyl-2-oxo-tetrahydro-pyrimidin-1-yl)-2-methoxy-phenyl]-vinyl}-phenyl)-methanesulfonamide], for which, in data set [1], the CC50 was determined as 13800 nM. Besides, the IC50 (commonly the concentration that inhibits the measured activity by half) worked out at 19 nM in data set [2] and 1 nM in data set [3].
For `COc1c(/C=C/c2ccc(NS(C)(=O)=O)cc2)cc(-n2ccncc2=O)cc1C(C)(C)C` [Compound I-13], the melting point – broadly, the temperature, or range, at which the solid turns liquid – lay within 214 to 216 °C. In data set [1], this compound gave a CC50 of 21400 nM. The IC50 in data set [2] came to 18.6 nM. Also, half-maximal inhibition in data set [3] (IC50) required 0.31 nM.
Regarding `NC(=O)c1ncn([C@@H]2O[C@H](CO)[C@@H](O)[C@H]2O)n1` [ribavirin, 1-((2R,3R,4S,5R)-3,4-Dihydroxy-5-hydroxymethyl-tetrahydro-furan-2-yl)-1H-[1,2,4]triazole-3-carboxylic acid amide], in data set [4] (monotherapy), the “patients with serum amino transferase levels reduced to normal” value is recorded as 40 % of patients. Moreover, the “effect on serum levels of HCV-RNA” value in data set [4] (sole treatment / monotherapy) is listed as “does not lower serum levels of HCV-RNA”.

These data come from US8158631B2, “Heterocyclic antiviral compounds” (Roche Palo Alto LLC, priority 2009, dated 2012).
